Experimental data reported in US7781591B2, “Substituted 3-cyanopyridines as protein kinase inhibitors” (Wyeth LLC, priority 2006, dated 2010).

Each molecule was assayed against T1, human PKCθ full length enzyme (Homo sapiens, UniProt Q04759) (assay: PKCθ IMAP assay (fluorescence polarization)). Settings: not given.
T1 construct: human PKCθ full length enzyme (Panvera Cat# P2996); purchased Panvera P2996
Format: biochemical

T1 sequence (Q04759 whole entry): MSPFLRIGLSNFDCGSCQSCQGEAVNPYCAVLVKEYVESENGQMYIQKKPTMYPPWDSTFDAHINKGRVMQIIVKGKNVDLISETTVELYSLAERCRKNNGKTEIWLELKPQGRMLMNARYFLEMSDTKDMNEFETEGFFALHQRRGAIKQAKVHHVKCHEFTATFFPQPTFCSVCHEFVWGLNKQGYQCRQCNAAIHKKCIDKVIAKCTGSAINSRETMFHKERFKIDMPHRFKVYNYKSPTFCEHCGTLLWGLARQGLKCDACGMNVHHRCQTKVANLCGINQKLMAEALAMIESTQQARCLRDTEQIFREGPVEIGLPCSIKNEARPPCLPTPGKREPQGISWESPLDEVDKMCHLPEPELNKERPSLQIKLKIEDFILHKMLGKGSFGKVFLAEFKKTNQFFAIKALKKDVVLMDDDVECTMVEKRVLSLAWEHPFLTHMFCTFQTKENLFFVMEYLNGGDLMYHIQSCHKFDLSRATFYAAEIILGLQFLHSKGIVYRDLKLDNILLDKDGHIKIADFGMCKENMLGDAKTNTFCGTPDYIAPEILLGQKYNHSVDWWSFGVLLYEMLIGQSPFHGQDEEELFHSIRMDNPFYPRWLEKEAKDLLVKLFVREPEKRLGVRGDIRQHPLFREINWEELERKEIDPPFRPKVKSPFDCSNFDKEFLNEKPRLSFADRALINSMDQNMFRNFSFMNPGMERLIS

SMILES	IC50
Cc1c(Nc2c(C#N)cncc2-c2ccc(OCCNCCN(C)C)cc2)ccc2[nH]ccc12 [Compound 417, 5-[4-(2-{[2-(dimethylamino)ethyl]amino}ethoxy)phenyl]-4-[(4-methyl-1H-indol-5-yl)amino]nicotinonitrile]	6 nM

Same assay, conditions: human PKCθ full length enzyme, IMAP; average value; read-out: IC50 PKCθ IMAP

SMILES	IC50
COc1cc(-c2cncc(C#N)c2Nc2ccc3[nH]ccc3c2C)ccc1OCCN1CCOCC1 [Compound 378, 5-[3-methoxy-4-(2-morpholin-4-ylethoxy)phenyl]-4-[(4-methyl-1H-indol-5-yl)amino]nicotinonitrile]	30 nM
COc1ccc(-c2cncc(C#N)c2Nc2ccc3[nH]ncc3c2)cc1OC [Compound 379, 5-(3,4-dimethoxyphenyl)-4-(1H-indazol-5-ylamino)nicotinonitrile]	2530 nM
Cc1c(Nc2c(C#N)cncc2-c2cccc(Cl)c2Cl)ccc2[nH]ccc12 [Compound 380, 5-(2,3-dichlorophenyl)-4-[(4-methyl-1H-indol-5-yl)amino]nicotinonitrile]	50 nM
Cc1c(Nc2c(C#N)cncc2-c2ccc(Br)cc2F)ccc2[nH]ccc12 [Compound 381, 5-(4-bromo-2-fluorophenyl)-4-[(4-methyl-1H-indol-5-yl)amino]nicotinonitrile]	20 nM
Cc1c(Nc2c(C#N)cncc2-c2cc3cc(CN(C)C)ccc3o2)ccc2[nH]ccc12 [Compound 382, 5-{5-[(dimethylamino)methyl]-1-benzofuran-2-yl}-4-[(4-methyl-1H-indol-5-yl)amino]nicotinonitrile]	6 nM
Cc1c(Nc2c(C#N)cncc2-c2cc3cc(CNCCO)ccc3o2)ccc2[nH]ccc12 [Compound 383, 5-(5-{[(2-hydroxyethyl)amino]methyl}-1-benzofuran-2-yl)-4-[(4-methyl-1H-indol-5-yl)amino]nicotinonitrile]	2 nM
Cc1c(Nc2c(C#N)cncc2-c2cc3cc(CNCCCO)ccc3o2)ccc2[nH]ccc12 [Compound 384, 5-(5-{[(3-hydroxypropyl)amino]methyl}-1-benzofuran-2-yl)-4-[(4-methyl-1H-indol-5-yl)amino]nicotinonitrile]	2 nM
Cc1c(Nc2c(C#N)cncc2-c2cc3cc(CNCC(O)CO)ccc3o2)ccc2[nH]ccc12 (stereo not drawn) [Compound 385, 5-(5-{[(2,3-dihydroxypropyl)amino]methyl}-1-benzofuran-2-yl)-4-[(4-methyl-1H-indol-5-yl)amino]nicotinonitrile]	2 nM
Cc1c(Nc2c(C#N)cncc2-c2cc3cc(CN(C)CC(O)CO)ccc3o2)ccc2[nH]ccc12 (stereo not drawn) [Compound 386, 5-(5-{[(2,3-dihydroxypropyl)(methyl)amino]methyl}-1-benzofuran-2-yl)-4-[(4-methyl-1H-indol-5-yl)amino]nicotinonitrile]	5 nM
Cc1c(Nc2c(C#N)cncc2-c2cc3cc(CN4CCOCC4)ccc3o2)ccc2[nH]ccc12 [Compound 388, 4-[(4-methyl-1H-indol-5-yl)amino]-5-[5-(morpholin-4-ylmethyl)-1-benzofuran-2-yl]nicotinonitrile]	13 nM
Cc1c(Nc2c(C#N)cncc2-c2cc3cc(CN4CCCC4)ccc3o2)ccc2[nH]ccc12 [Compound 389, 4-[(4-methyl-1H-indol-5-yl)amino]-5-[5-(pyrrolidin-1-ylmethyl)-1-benzofuran-2-yl]nicotinonitrile]	3 nM
Cc1c(Nc2c(C#N)cncc2-c2cc3cc(CNCCN4CCCC4)ccc3o2)ccc2[nH]ccc12 [Compound 390, 4-[(4-methyl-1H-indol-5-yl)amino]-5-(5-{[(2-pyrrolidin-1-ylethyl)amino]methyl}-1-benzofuran-2-yl)nicotinonitrile]	1 nM
Cc1c(Nc2c(C#N)cncc2-c2cc3cc(CNCC4CCN(C)CC4)ccc3o2)ccc2[nH]ccc12 [Compound 391, 4-[(4-methyl-1H-indol-5-yl)amino]-5-[5-({[(1-methylpiperidin-4-yl)methyl]amino}methyl)-1-benzofuran-2-yl]nicotinonitrile]	1 nM
Cc1c(Nc2c(C#N)cncc2-c2cc3cc(CN4CCC(CO)CC4)ccc3o2)ccc2[nH]ccc12 [Compound 392, 5-(5-{[4-(hydroxymethyl)piperidin-1-yl]methyl}-1-benzofuran-2-yl)-4-[(4-methyl-1H-indol-5-yl)amino]nicotinonitrile]	5 nM
Cc1c(Nc2c(C#N)cncc2-c2cc3cc(CN4CCC(N5CCCC5)CC4)ccc3o2)ccc2[nH]ccc12 [Compound 393, 4-[(4-methyl-1H-indol-5-yl)amino]-5-{5-[(4-pyrrolidin-1-ylpiperidin-1-yl)methyl]-1-benzofuran-2-yl}nicotinonitrile]	1 nM
Cc1c(Nc2c(C#N)cncc2-c2cc3cc(CN4CCC(N5CCCCC5)CC4)ccc3o2)ccc2[nH]ccc12 [Compound 394, 5-[5-(1,4′-bipiperidin-1′-ylmethyl)-1-benzofuran-2-yl]-4-[(4-methyl-1H-indol-5-yl)amino]nicotinonitrile]	1 nM
Cc1c(Nc2c(C#N)cncc2-c2cc3cc(CN4CCC(N5CCOCC5)CC4)ccc3o2)ccc2[nH]ccc12 [Compound 395, 4-[(4-methyl-1H-indol-5-yl)amino]-5-{5-[(4-morpholin-4-ylpiperidin-1-yl)methyl]-1-benzofuran-2-yl}nicotinonitrile]	4 nM
Cc1c(Nc2c(C#N)cncc2-c2cc3cc(CN4CCN(CCN(C)C)CC4)ccc3o2)ccc2[nH]ccc12 [Compound 396, 5-[5-({4-[2-(dimethylamino)ethyl]piperazin-1-yl}methyl)-1-benzofuran-2-yl]-4-[(4-methyl-1H-indol-5-yl)amino]nicotinonitrile]	2 nM

SMILES	IC50
Cc1c(Nc2c(C#N)cncc2-c2cc3cc(CN4CCN(c5ccccn5)CC4)ccc3o2)ccc2[nH]ccc12 [Compound 397, 4-[(4-methyl-1H-indol-5-yl)amino]-5-{5-[(4-pyridin-2-ylpiperazin-1-yl)methyl]-1-benzofuran-2-yl}nicotinonitrile]	13 nM
Cc1c(Nc2c(C#N)cncc2-c2cc3cc(CNCc4ccccn4)ccc3o2)ccc2[nH]ccc12 [Compound 398, 4-[(4-methyl-1H-indol-5-yl)amino]-5-(5-{[(pyridin-2-ylmethyl)amino]methyl}-1-benzofuran-2-yl)nicotinonitrile]	3 nM
Cc1c(Nc2c(C#N)cncc2-c2cc3cc(CNCc4cccnc4)ccc3o2)ccc2[nH]ccc12 [Compound 399, 4-[(4-methyl-1H-indol-5-yl)amino]-5-(5-{[(pyridin-3-ylmethyl)amino]methyl}-1-benzofuran-2-yl)nicotinonitrile]	2 nM
Cc1c(Nc2c(C#N)cncc2-c2cc3cc(CNCc4ccncc4)ccc3o2)ccc2[nH]ccc12 [Compound 400, 4-[(4-methyl-1H-indol-5-yl)amino]-5-(5-{[(pyridin-4-ylmethyl)amino]methyl}-1-benzofuran-2-yl)nicotinonitrile]	2 nM
Cc1c(Nc2c(C#N)cncc2-c2ccc(CN3CCOCC3)o2)ccc2[nH]ccc12 [Compound 401, 4-[(4-methyl-1H-indol-5-yl)amino]-5-[5-(morpholin-4-ylmethyl)-2-furyl]nicotinonitrile]	8 nM
Cc1c(Nc2c(C#N)cncc2-c2ccc(CN3CCCCC3)o2)ccc2[nH]ccc12 [Compound 402, 4-[(4-methyl-1H-indol-5-yl)amino]-5-[5-(piperidin-1-ylmethyl)-2-furyl]nicotinonitrile]	41 nM
Cc1c(Nc2c(C#N)cncc2-c2ccc(CN3CCC(N4CCCCC4)CC3)o2)ccc2[nH]ccc12 [Compound 403, 5-[5-(1,4′-bipiperidin-1′-ylmethyl)-2-furyl]-4-[(4-methyl-1H-indol-5-yl)amino]nicotinonitrile]	5 nM
Cc1c(Nc2c(C#N)cncc2-c2ccc(CN3CCC(N4CCCC4)CC3)o2)ccc2[nH]ccc12 [Compound 404, 4-[(4-methyl-1H-indol-5-yl)amino]-5-{5-[(4-pyrrolidin-1-ylpiperidin-1-yl)methyl]-2-furyl}nicotinonitrile]	4 nM
Cc1c(Nc2c(C#N)cncc2-c2ccc(CN3CCC(N4CCOCC4)CC3)o2)ccc2[nH]ccc12 [Compound 405, 4-[(4-methyl-1H-indol-5-yl)amino]-5-{5-[(4-morpholin-4-ylpiperidin-1-yl)methyl]-2-furyl}nicotinonitrile]	9 nM
CCN(CC)Cc1ccc(-c2cncc(C#N)c2Nc2ccc3[nH]ccc3c2C)o1 [Compound 406, 5-{5-[(diethylamino)methyl]-2-furyl}-4-[(4-methyl-1H-indol-5-yl)amino]nicotinonitrile]	42 nM
CCCCN(CCCC)Cc1ccc(-c2cncc(C#N)c2Nc2ccc3[nH]ccc3c2C)o1 [Compound 407, 5-{5-[(dibutylamino)methyl]-2-furyl}-4-[(4-methyl-1H-indol-5-yl)amino]nicotinonitrile]	20 nM
Cc1c(Nc2c(C#N)cncc2-c2ccc(CNCc3ccccc3)o2)ccc2[nH]ccc12 [Compound 408, 5-{5-[(benzylamino)methyl]-2-furyl}-4-[(4-methyl-1H-indol-5-yl)amino]nicotinonitrile]	11 nM
COc1ccc(-c2cncc(C#N)c2Nc2cc3cc[nH]c3cc2C)cc1OC [Compound 412, 5-(3,4-dimethoxyphenyl)-4-[(6-methyl-1H-indol-5-yl)amino]nicotinonitrile]	10 nM
Cc1cc2[nH]ccc2cc1Nc1c(C#N)cncc1-c1cc2ccccc2o1 [Compound 413, 5-(1-benzofuran-2-yl)-4-[(6-methyl-1H-indol-5-yl)amino]nicotinonitrile]	55 nM
Cc1c(Nc2c(C#N)cncc2-c2ccc(OCCNCCO)cc2)ccc2[nH]ccc12 [Compound 414, 5-(4-{2-[(2-hydroxyethyl)amino]ethoxy}phenyl)-4-[(4-methyl-1H-indol-5-yl)amino]nicotinonitrile]	4 nM
Cc1c(Nc2c(C#N)cncc2-c2ccc(OCCNCCCO)cc2)ccc2[nH]ccc12 [Compound 415, 5-(4-{2-[(3-hydroxypropyl)amino]ethoxy}phenyl)-4-[(4-methyl-1H-indol-5-yl)amino]nicotinonitrile]	5 nM
CCOCCNCCOc1ccc(-c2cncc(C#N)c2Nc2ccc3[nH]ccc3c2C)cc1 [Compound 416, 5-(4-{2-[(2-ethoxyethyl)amino]ethoxy}phenyl)-4-[(4-methyl-1H-indol-5-yl)amino]nicotinonitrile]	6 nM
